From patent US20140357713A1, “ANTIMICROBIAL COMPOUNDS AND METHODS OF USE” (NexMed Holdings, Inc., priority 2012, published 2014)
Where two headings read alike, the source gives them in different places.

How the values were obtained:
[1] = test system: Staphulococcus aureus (ATCC 29213); experiment: Minimum inhibitory concentration (MIC) assay, Example 33; type: cell-based, Staphylococcus aureus; conditions: for MIC: Table 19 summary
Procedure: (§1) Thirty compounds were tested for antimicrobial activity using standard procedures and standard strains for both the minimum inhibitory concentration (MIC) assay and a time kill study. Both the MIC assay and the time kill study were performed according to Clinical and Laboratory Standards Institute (CLSI) guidelines. Three bacteria strains, Escherichia coli (ATCC 25922), Pseudomonas aeruginosa (ATCC 27853), Staphulococcus aureus (ATCC 29213), and two fungus strains, Candida albicans (ATCC 90029) and Aspergillus niger (CMCC 98003), were used in the experiments.
(§2) Preparation of cultures. Before the experiment, two days for the bacteria strains and five days for fungus strains, an aliquot was removed from the cultures frozen at −80° C. Medium was added to the surface of an appropriate agar plate and streaked with the aliquot. The plate was incubated for 20 to 24 hrs at 35±2° C. for bacteria or for 5 days at 26-30° C. in incubator for fungus. From the resulting growth on each plate, one isolated colony of similar morphology was selected and re-streaked onto a fresh agar plate using a sterile disposable loop. The plate was incubated 20 to 24 hrs at 35±2° C. or for 5 days at 26-30° C. in an incubator.
(§3) Preparation of Assay Plates with Medium and Drugs. On the day of the assay, CAMHB medium or RPMI 1640 medium was removed from 4′C storage and allowed to reach room temperature. Ninety microliters (μL) of room temperature CAMHB or RPMI 1640 (supplemented with the appropriate concentration of DMSO, if required) were added to rows B-G of each 96-well microtiter plate. Using a pipette, duplicate 180 μL aliquots of each drug stock solution were added to column 1 (e.g. A1 and B1 or C1 and D1 or E1 and F1 or G1 and H1). Using a multichannel pipette or the Provision 2000 liquid handler, serial 2-fold dilutions (90 μL) were performed in each row across the plate to row G. Eighty μL of compounds dilutions were transferred to a 96-deep well plate. Medium, 1,520 μL of CAMHB or RPMI 1640, was added to each well. The contents of the wells were mixed thoroughly. A 50 μL aliquot of each of the resulting mixtures was transferred to a 96-well assay plate.
(§4) For bacteria, a sterile inoculating loop was used to transfer growth from an agar plate culture into about 5 mL of test medium. Using a turbidity meter, this inoculum was adjusted so that its density (600 nm) was equivalent to a 0.5 McFarland barium sulfate standard (0.08-0.13). The resulting suspension was diluted 1:100 into medium to obtain two times test inoculums.
(§5) For Aspergillus niger, sporulating colonies were covered with RPMI 1640, and a suspension was prepared by gently probing the colonies with the tip of a transfer pipette. The suspension was transferred to a sterile tube and mixed with a vortex mixer for 15 seconds. The densities at 530 nm were adjusted to 0.09-0.13 for each sample. The resulting suspension was diluted 1:50 with the medium to obtain two times test inoculums. Fifty μL/well of this inoculum suspension was added to wells of drug-containing plates (1:2 dilution). Plates were incubated at 35° C. for the appropriate times. The MIC was read and recorded according to CLSI guidelines.
(§6) The MIC values for thirty compounds against Escherichia coli, Pseudomonas aeruginosa, Staphulococcus aureus, Candida albicans, and Aspergillus niger were recorded and are presented in Table 3 and Table 4.

[2] = test system: Pseudomonas aeruginosa (ATCC 27853); experiment: as above; type: cell-based; conditions: for MIC: Table 19 summary
Procedure: as §1, §2, §3, §4, §5, §6

[3] = test system: Escherichia coli (ATCC 25922); experiment: as above; type: cell-based; conditions: for MIC: Table 19 summary of Example 33 and Example 35
Procedure: as §1, §2, §3, §4, §5, §6

[4] = test system: Aspergillus niger (CMCC 98003); experiment: as above; type: cell-based; conditions: for MIC: Table 19 summary
Procedure: as §1, §2, §3, §5, §6

[5] = test system: Candida albicans (ATCC 90029); experiment: as above; type: cell-based; conditions: for MIC: Table 19 summary
Procedure: as §1, §2, §3
For Candida albicans, a sterile inoculating loop was used to transfer growth from an agar plate culture into a tube with RPMI1640 medium. This inoculum was adjusted so that its density at 530 nm was in the ranges from 0.08 to 0.13. The resulting suspension was diluted 1:50 and further diluted 1:20 with the medium to obtain two times test inoculums.
as §5, §6

pH (Table 1) = type: physicochemical
[6] = test system: Pseudomonas aeruginosa (ATCC 27853); experiment: Time kill study, Example 33 (0 to 5 min); type: cell-based; conditions: 1×MIC
Procedure: as §1
(§7) The viable counts in Log10 CFU/mL at each time point were recorded.
(§8) Time kill studies. Strain suspensions were prepared as described above for the MIC test, and strain suspensions and compound solutions were mixed in the same volume. Samples were removed at specified times including 0 min, 30 sec, 1 min and 5 mins, were diluted in the test medium and streaked on agar. Colonies were counted after 24 to 48 hrs of incubation. […]

[7] = test system: Staphylococcus aureus (ATCC 29213); experiment: Time kill study, Example 33 (0 to 5 min); type: cell-based; conditions: 1×MIC
Procedure: as §1, §7, §8

[8] = test system: Escherichia coli (ATCC 25922); experiment: Time kill study, Example 33 (0 to 5 min); type: cell-based; conditions: 1×MIC
Procedure: as §1, §7, §8

For `CCCCCCCCCCCCOC(=O)[C@@H](C)N(C)C.Cl` [Nex-56, D-Dodecyl 2-(dimethylamino)propanoate hydrochloride], the “MIC” value [1] was 3130 µg/mL, the “MIC S. aureus” value ([1]; n = 1) was 3130 µg/mL and the “MIC S. aureus” value ([1]; n = 2) was 3130 µg/mL. The “MIC” value [2] was 6250 µg/mL, the “MIC P. aeruginosa” value ([2]; n = 1) was 6250 µg/mL and the “MIC P. aeruginosa” value ([2]; n = 2) was 6250 µg/mL. For the same molecule, the “MIC” value [3] was 3130 µg/mL, the “MIC E. coli” value ([3]; n = 1) was 3130 µg/mL and the “MIC E. coli” value ([3]; n = 2) was 3130 µg/mL. For the same molecule, the “MIC” value [4] was >12500 µg/mL, the “MIC Aspergillus niger” value ([4]; n = 1) was >12500 µg/mL and the “MIC Aspergillus niger” value ([4]; n = 2) was >12500 µg/mL. The “MIC” value [5] was >12500 µg/mL, the “MIC Candida albicans” value ([5]; n = 1) was >12500 µg/mL and the “MIC Candida albicans” value ([5]; n = 2) was >12500 µg/mL. For the same molecule, the pH (pH (Table 1)) was 1.70, the “Viable counts, Pseudomonas aeruginosa time kill study” value ([6]; 0.5 min) was <4.0 Log10 CFU/mL and the “Viable counts, Pseudomonas aeruginosa time kill study” value ([6]; 1 min) was <3.70 Log10 CFU/mL. The “Viable counts, Pseudomonas aeruginosa time kill study” value ([6]; 5 min) was <3.52 Log10 CFU/mL, the “Viable counts, Pseudomonas aeruginosa time kill study” value ([6]; time 0) was 5.56 Log10 CFU/mL and the “Viable counts, Staphylococcus aureus time kill study” value ([7]; 0.5 min) was 6.27 Log10 CFU/mL. The “Viable counts, Staphylococcus aureus time kill study” value ([7]; 1 min) was 6.16 Log10 CFU/mL, the “Viable counts, Staphylococcus aureus time kill study” value ([7]; 5 min) was 5.9 Log10 CFU/mL and the “Viable counts, Staphylococcus aureus time kill study” value ([7]; time 0) was 6.33 Log10 CFU/mL. For the same molecule, the “Viable counts, Escherichia coli time kill study” value ([8]; 0.5 min) was <4.0 Log10 CFU/mL, the “Viable counts, Escherichia coli time kill study” value ([8]; 1 min) was <3.70 Log10 CFU/mL and the “Viable counts, Escherichia coli time kill study” value ([8]; 5 min) was <3.52 Log10 CFU/mL. The “Viable counts, Escherichia coli time kill study” value ([8]; time 0) was 5.92 Log10 CFU/mL.

In the case of `CCCCCCCCCCCCOC(=O)C(C)N(C)C` (stereo not drawn) [Nex-22, Dodecyl 2-(dimethylamino)propanoate methanesulfonate], the “MIC” value ([1]; methanesulfonate) is reported as 3130 µg/mL, the “MIC S. aureus” value ([1]; n = 1, methanesulfonate) is reported as 3130 µg/mL and the “MIC S. aureus” value ([1]; n = 2, methanesulfonate) is reported as 3130 µg/mL. For the same molecule, the “MIC” value ([2]; methanesulfonate) was 6250 µg/mL, the “MIC P. aeruginosa” value ([2]; n = 1, methanesulfonate) was 6250 µg/mL and the “MIC P. aeruginosa” value ([2]; n = 2, methanesulfonate) was 6250 µg/mL. The “MIC” value ([3]; methanesulfonate) was 3130 µg/mL, the “MIC E. coli” value ([3]; n = 1, methanesulfonate) was 3130 µg/mL and the “MIC E. coli” value ([3]; n = 2, methanesulfonate) was 3130 µg/mL. The “MIC” value ([4]; methanesulfonate) was >12500 µg/mL, the “MIC Aspergillus niger” value ([4]; n = 1, methanesulfonate) was >12500 µg/mL and the “MIC” value ([5]; methanesulfonate) was >12500 µg/mL. For the same molecule, the “MIC Candida albicans” value ([5]; n = 1, methanesulfonate) was >12500 µg/mL, the “MIC Candida albicans” value ([5]; n = 2, methanesulfonate) was >12500 µg/mL and the pH (pH (Table 1); methanesulfonate) was 3.25. For the same molecule, the “Viable counts, Pseudomonas aeruginosa time kill study” value ([6]; 0.5 min, methanesulfonate) was <4.0 Log10 CFU/mL, the “Viable counts, Pseudomonas aeruginosa time kill study” value ([6]; 1 min, methanesulfonate) was <3.70 Log10 CFU/mL and the “Viable counts, Pseudomonas aeruginosa time kill study” value ([6]; time 0, methanesulfonate) was 5.64 Log10 CFU/mL. The “Viable counts, Staphylococcus aureus time kill study” value ([7]; 0.5 min, methanesulfonate) was 6.2 Log10 CFU/mL, the “Viable counts, Staphylococcus aureus time kill study” value ([7]; 1 min, methanesulfonate) was 6.18 Log10 CFU/mL and the “Viable counts, Staphylococcus aureus time kill study” value ([7]; 5 min, methanesulfonate) was 6.21 Log10 CFU/mL. For the same molecule, the “Viable counts, Staphylococcus aureus time kill study” value ([7]; time 0, methanesulfonate) was 6.08 Log10 CFU/mL, the “Viable counts, Escherichia coli time kill study” value ([8]; 0.5 min, methanesulfonate) was 4.6 Log10 CFU/mL and the “Viable counts, Escherichia coli time kill study” value ([8]; 1 min, methanesulfonate) was <3.70 Log10 CFU/mL. The “Viable counts, Escherichia coli time kill study” value ([8]; 5 min, methanesulfonate) was <3.52 Log10 CFU/mL and the “Viable counts, Escherichia coli time kill study” value ([8]; time 0, methanesulfonate) was 5.78 Log10 CFU/mL.
